Measured values published in ChEMBL document CHEMBL6096702, “Discovery of a Novel p38α-MK2 Complex Inhibitor as a Potential Choice for Autoimmune Diseases” (J Med Chem, 2025).
The source made the active and inactive calls. No cut-off for these calls is given here.

Tests used:
[1] = Selectivity ratio of IC50 for inhibition of N-terminal GST-tagged wildtype human P38alpha (4 to 152 residues) extracted from Escherichia coli/GST-tagged PRAK (unknown origin) to IC50 for inhibition of N-terminal GST-tagged wildtype human P38alpha (4 to 152 residues) extracted from Escherichia coli/GST-tagged MK2 (unknown origin)
[2] = Clearance in male Sprague-Dawley rat at 1 mg/kg, iv measured after 24 hrs by LC-MS/MS analysis; assay type: ADME, organism-based; conditions: in vivo
[3] = Half-life in male Sprague-Dawley rat at 1 mg/kg, iv measured after 24 hrs by LC-MS/MS analysis; assay type: ADME, organism-based; conditions: in vivo
[4] = MRT in male Sprague-Dawley rat at 1 mg/kg, iv measured after 24 hrs by LC-MS/MS analysis; assay type: ADME, organism-based; conditions: in vivo
[5] = Half-life in male Beagle dog at 1 mg/kg, iv measured after 24 hrs by LC-MS/MS analysis; assay type: ADME, organism-based, Canis lupus familiaris; conditions: in vivo
[6] = AUClast in male Beagle dog at 2 mg/kg, po measured after 24 hrs by LC-MS/MS analysis; assay type: ADME, organism-based, Canis lupus familiaris; conditions: in vivo
[7] = Oral bioavailability in male Beagle dog at 2 mg/kg measured after 24 hrs by LC-MS/MS analysis; assay type: ADME, organism-based, Canis lupus familiaris; conditions: in vivo
PBMC [8] = test: Inhibition of LPS-induced TNF-alpha production in human PBMC cells at 0.01 to 10000 nM preincubated with compound for 1 hrs followed by LPS addition and measured after 4 hrs; assay type: functional, cell-based; conditions: dose 0.01-10000 nM, time 5.0 hrs
PBMC [9] = test: Inhibition of LPS-induced IL-6 production in human PBMC cells at 0.01 to 10000 nM preincubated with compound for 1 hrs followed by LPS addition and measured after 4 hrs; assay type: functional, cell-based; conditions: dose 0.01-10000 nM, time 5.0 hrs
PBMC [10] = test: Inhibition of LPS-induced IL-8 production in human PBMC cells at 0.01 to 10000 nM preincubated with compound for 1 hrs followed by LPS addition and measured after 4 hrs; assay type: functional, cell-based; conditions: dose 0.01-10000 nM, time 5.0 hrs
[11] = Inhibition of HSP27 phosphorylation in human THP-1 cells at 0.1 to 1000 nM preincubated with compounds followed by LPS addition for 30 mins; assay type: cell-based
[12] = Inhibition of P38alpha/GST-tagged ATF2 (unknown origin) assessed as reduction in ATF2 phosphorylation incubated for 30 mins in presence of ATP by TR-FRET assay; design: species or system Homo sapiens
[13] = Selectivity ratio of IC50 for inhibition of P38alpha/GST-tagged ATF2 (unknown origin) to IC50 for inhibition of N-terminal GST-tagged wildtype human P38alpha (4 to 152 residues) extracted from Escherichia coli/GST-tagged MK2 (unknown origin)
[14] = biological target: MAP kinase-activated protein kinase 2 (Homo sapiens) (UniProt P49137); test: Inhibition of LPS-induced MK2 phosphorylation in differentiated human THP-1 macrophage cells at 10 to 10000 nM preincubated with compound for 60 mins followed by LPS addition and measured after 30 mins by Western blot analysis; assay type: cell-based; conditions: dose 10-10000 nM, time 90.0 min
Chain of MAP kinase-activated protein kinase 2 (Homo sapiens) (P49137 whole entry, looked up): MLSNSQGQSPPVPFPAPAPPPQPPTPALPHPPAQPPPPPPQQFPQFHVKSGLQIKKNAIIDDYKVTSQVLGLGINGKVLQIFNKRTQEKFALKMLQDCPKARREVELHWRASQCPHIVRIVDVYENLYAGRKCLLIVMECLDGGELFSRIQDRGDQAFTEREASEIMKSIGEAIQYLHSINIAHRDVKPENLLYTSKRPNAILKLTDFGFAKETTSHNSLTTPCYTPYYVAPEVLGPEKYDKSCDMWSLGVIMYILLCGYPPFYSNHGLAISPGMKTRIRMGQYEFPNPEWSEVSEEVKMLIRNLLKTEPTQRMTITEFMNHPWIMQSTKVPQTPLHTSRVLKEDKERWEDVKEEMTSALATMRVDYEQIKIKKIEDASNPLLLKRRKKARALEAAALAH

Cytochrome P450 2D6 = Cytochrome P450 2D6 (Homo sapiens, UniProt P10635); test: Inhibition of CYP2D6 in human liver microsomes using dextromethorphan as substrate in presence of NADP by LC-MS/MS analysis; assay type: ADME, Microsome
Chain of Cytochrome P450 2D6 (P10635 whole entry): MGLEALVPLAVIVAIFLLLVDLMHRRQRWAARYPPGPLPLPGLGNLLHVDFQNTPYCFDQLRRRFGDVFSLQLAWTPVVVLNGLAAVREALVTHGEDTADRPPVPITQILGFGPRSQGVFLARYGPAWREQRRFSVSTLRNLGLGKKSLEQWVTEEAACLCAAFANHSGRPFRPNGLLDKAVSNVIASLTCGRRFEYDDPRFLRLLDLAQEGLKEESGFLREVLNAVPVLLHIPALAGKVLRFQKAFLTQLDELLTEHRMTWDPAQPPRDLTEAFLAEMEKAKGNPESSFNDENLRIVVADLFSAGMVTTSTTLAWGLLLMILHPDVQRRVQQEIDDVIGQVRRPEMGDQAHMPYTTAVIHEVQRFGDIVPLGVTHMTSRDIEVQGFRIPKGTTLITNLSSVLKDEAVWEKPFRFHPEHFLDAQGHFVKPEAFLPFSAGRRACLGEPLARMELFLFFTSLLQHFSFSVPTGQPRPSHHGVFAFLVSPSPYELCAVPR

Cytochrome P450 3A4 [15] = biological target: T1, Cytochrome P450 3A4 (Homo sapiens, UniProt P08684); test: Inhibition of CYP3A4 in human liver microsomes using midazolam as substrate in presence of NADP by LC-MS/MS analysis; assay type: ADME, Microsome
T1 sequence (P08684 whole entry): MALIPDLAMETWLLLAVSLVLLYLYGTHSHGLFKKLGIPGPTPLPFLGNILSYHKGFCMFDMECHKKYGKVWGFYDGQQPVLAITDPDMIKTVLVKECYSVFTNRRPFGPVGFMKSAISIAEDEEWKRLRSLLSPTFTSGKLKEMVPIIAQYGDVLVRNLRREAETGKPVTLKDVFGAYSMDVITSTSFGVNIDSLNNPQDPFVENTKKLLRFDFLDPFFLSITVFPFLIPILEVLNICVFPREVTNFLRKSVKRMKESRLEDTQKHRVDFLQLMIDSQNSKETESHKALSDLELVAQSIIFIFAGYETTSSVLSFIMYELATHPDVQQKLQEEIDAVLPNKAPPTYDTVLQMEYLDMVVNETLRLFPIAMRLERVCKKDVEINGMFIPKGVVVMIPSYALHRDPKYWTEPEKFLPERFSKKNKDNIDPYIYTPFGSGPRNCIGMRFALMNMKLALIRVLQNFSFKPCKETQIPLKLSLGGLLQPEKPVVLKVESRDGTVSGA

Cytochrome P450 3A4 [16] = biological target: T1, Cytochrome P450 3A4; test: Inhibition of CYP3A4 in human liver microsomes using testosterone as substrate in presence of NADP by LC-MS/MS analysis; assay type: ADME, Microsome
Cytochrome P450 2C9 = Cytochrome P450 2C9 (Homo sapiens, UniProt P11712); test: Inhibition of CYP2C9 in human liver microsomes using tolbutamide as substrate in presence of NADP by LC-MS/MS analysis; assay type: ADME, Microsome
Chain of Cytochrome P450 2C9 (P11712 whole entry): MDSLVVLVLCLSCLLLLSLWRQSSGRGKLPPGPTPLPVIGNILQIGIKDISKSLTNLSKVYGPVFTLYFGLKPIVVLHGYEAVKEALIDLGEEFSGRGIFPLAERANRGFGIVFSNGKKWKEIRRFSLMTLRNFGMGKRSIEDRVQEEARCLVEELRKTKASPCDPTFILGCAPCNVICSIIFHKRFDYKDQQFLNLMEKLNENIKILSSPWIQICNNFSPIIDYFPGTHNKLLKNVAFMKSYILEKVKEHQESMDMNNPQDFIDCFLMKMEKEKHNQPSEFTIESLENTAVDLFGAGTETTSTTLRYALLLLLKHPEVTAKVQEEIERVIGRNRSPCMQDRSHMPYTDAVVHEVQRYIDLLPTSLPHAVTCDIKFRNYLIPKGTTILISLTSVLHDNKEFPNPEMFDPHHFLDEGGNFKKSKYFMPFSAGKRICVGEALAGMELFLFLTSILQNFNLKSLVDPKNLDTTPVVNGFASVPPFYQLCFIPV

Cytochrome P450 2C19 = Cytochrome P450 2C19 (Homo sapiens, UniProt P33261); test: Inhibition of CYP2C19 in human liver microsomes using mephenytoin as substrate in presence of NADP by LC-MS/MS analysis; assay type: ADME, Microsome
Chain of Cytochrome P450 2C19 (P33261 whole entry): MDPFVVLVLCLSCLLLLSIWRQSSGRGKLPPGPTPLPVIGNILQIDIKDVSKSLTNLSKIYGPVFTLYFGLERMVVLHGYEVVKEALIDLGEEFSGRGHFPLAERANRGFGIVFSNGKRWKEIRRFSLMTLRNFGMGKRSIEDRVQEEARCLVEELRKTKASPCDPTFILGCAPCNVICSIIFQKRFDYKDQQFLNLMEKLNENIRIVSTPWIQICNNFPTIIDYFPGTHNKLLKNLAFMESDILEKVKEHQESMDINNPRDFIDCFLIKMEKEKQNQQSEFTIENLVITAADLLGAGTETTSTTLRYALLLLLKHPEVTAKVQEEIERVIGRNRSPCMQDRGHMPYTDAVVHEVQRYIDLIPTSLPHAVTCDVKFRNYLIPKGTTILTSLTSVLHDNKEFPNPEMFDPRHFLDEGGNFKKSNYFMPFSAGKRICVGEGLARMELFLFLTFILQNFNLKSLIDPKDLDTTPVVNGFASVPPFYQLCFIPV

Cytochrome P450 1A2 = biological target: T2, Cytochrome P450 1A2 (Homo sapiens, UniProt P05177); test: Inhibition of CYP1A2 in human liver microsomes using phenacetin as substrate in presence of NADP by LC-MS/MS analysis; assay type: ADME, Microsome
T2 sequence (P05177 whole entry): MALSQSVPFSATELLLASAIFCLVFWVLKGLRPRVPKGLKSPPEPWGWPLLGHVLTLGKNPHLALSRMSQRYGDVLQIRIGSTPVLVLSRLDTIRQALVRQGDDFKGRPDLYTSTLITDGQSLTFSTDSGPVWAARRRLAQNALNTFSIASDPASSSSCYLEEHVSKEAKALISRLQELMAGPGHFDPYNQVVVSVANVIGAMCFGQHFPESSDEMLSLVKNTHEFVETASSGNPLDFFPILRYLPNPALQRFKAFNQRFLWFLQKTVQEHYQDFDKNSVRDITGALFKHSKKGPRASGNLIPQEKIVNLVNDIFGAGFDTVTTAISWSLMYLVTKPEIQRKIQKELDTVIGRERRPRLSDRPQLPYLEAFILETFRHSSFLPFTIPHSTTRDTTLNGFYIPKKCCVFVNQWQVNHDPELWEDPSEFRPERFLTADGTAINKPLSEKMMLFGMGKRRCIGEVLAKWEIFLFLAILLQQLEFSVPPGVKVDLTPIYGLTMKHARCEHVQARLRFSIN

[17] = Half-life in female Lewis rat at 1 mg/kg, po measured after 24 hrs by LC-MS/MS analysis; assay type: ADME, organism-based; conditions: in vivo
[18] = Cmax in female Lewis rat at 1 mg/kg, po measured after 24 hrs by LC-MS/MS analysis; assay type: ADME, organism-based; conditions: in vivo
[19] = AUC (0 to 24 hrs) in female Lewis rat at 1 mg/kg, po measured after 24 hrs by LC-MS/MS analysis; assay type: ADME, organism-based; conditions: in vivo
[20] = Cmax in female Lewis rat at 3 mg/kg, po measured after 24 hrs by LC-MS/MS analysis; assay type: ADME, organism-based; conditions: in vivo
[21] = AUC (0 to 24 hrs) in female Lewis rat at 3 mg/kg, po measured after 24 hrs by LC-MS/MS analysis; assay type: ADME, organism-based; conditions: in vivo
Rattus norvegicus [22] = test: Antiarthritic activity in Mycobacterium tuberculosis H37R-induced female Lewis rat model of arthritis at 0.3 mg/kg, po administered twice daily for 15 days starting from day 13 after adjuvant administration; assay type: functional, organism-based; conditions: time 15.0 day
Rattus norvegicus [23] = test: Antiarthritic activity in Mycobacterium tuberculosis H37R-induced female Lewis rat model of arthritis at 1 mg/kg, po administered twice daily for 15 days starting from day 13 after adjuvant administration; assay type: functional, organism-based; conditions: time 15.0 day
Rattus norvegicus [24] = test: (§1) Antiarthritic activity in Mycobacterium tuberculosis H37R-induced female Lewis rat model of arthritis assessed as reduction in clinical score at 1 mg/kg, po administered twice daily for 15 days starting from day 13 after adjuvant administration; assay type: functional, organism-based; conditions: time 15.0 day
Rattus norvegicus [25] = test: as §1, with “joint swelling by measuring paw volume” for “clinical”, “administration by water displacement method” for “administration”; assay type: functional, organism-based; conditions: time 15.0 day
Rattus norvegicus [26] = test: Antiarthritic activity in Mycobacterium tuberculosis H37R-induced female Lewis rat model of arthritis assessed as reduction in paw inflammation at 0.3 to 1 mg/kg, po administered twice daily for 15 days starting from day 13 after adjuvant administration by micro-CT analysis; assay type: functional, organism-based; conditions: dose 0.3-1 mg/kg, time 15.0 day

For `Cc1cnc(-c2ccnc(C(C)(C)O)n2)c(F)c1-n1c(C)cc(O[C@@H](C)c2ncc(F)cc2F)c(C)c1=O`, the Ratio IC50 [1] was 1170, the clearance [2] was 9.6 mL/min/kg and the half-life [3] was 2.8 h. The MRT [4] was 2.2 h, the half-life [5] was 2.9 h and the AUC(0-t) at 24 h [6] was 5080 ng·h/mL. For the same compound, the bioavailability [7] was 68%, the inhibition (PBMC [8]) was “Active” and the inhibition (PBMC [9]) was “Active”. For the same compound, the inhibition (PBMC [10]) was “Active”, the IC50 [11] was 0.001 µM and the IC50 [12] was 1 µM. The Ratio IC50 [13] was 263, the inhibition [14] was “Active” and the IC50 (Cytochrome P450 2D6) was > 40 µM. The IC50 (Cytochrome P450 3A4 [15]) was > 40 µM, the IC50 (Cytochrome P450 3A4 [16]) was > 40 µM and the IC50 (Cytochrome P450 2C9) was > 40 µM. For the same compound, the IC50 (Cytochrome P450 2C19) was > 40 µM, the IC50 (Cytochrome P450 1A2) was > 40 µM and the half-life [17] was 3.9 h. For the same compound, the Cmax [18] was 299 ng/mL, the AUC(0-t) at 24 h [19] was 2390 ng·h/mL and the Cmax [20] was 916 ng/mL. For the same compound, the AUC(0-t) at 24 h [21] was 6480 ng·h/mL, the Activity (Rattus norvegicus [22]) was “Active; Significant Clinical Effect Observed” and the Activity (Rattus norvegicus [23]) was “Active”. The Activity (Rattus norvegicus [24]) was “Active; Comparable To 3 Mg/Kg Of Compound 1”, the Activity (Rattus norvegicus [25]) was “Active; Significantly Superior Activity Observed Compared To 3 Mg/Kg Of Compound 1” and the Activity (Rattus norvegicus [26]) was “Active”.
